{"source": "patent US8163718B2", "about": "“Nucleoside analogues containing phosphonate or phosphonamide groups” (Gilead Sciences, Inc., priority 2008, dated 2012)", "test_system": "naturally occurring non-Hodgkin's lymphoma", "experiment": "Efficacy in a dog with naturally occurring non-Hodgkin's lymphoma (RECIST)", "assay_type": "in vivo", "set-up": "key to Lymphnode R PSLN size / Lymphnode L PopLN size / Lymphnode L SMLN size / Lymphnode R SMLN size / Lymphnode L PSLN size: WNL refers to when a lymph node is decreased to a size considered within normal ranges for that node", "settings": "for % change of sum of lymphnodes: vs baseline sum; for Sum of lymphnodes: Day 0 pre treatment sum 16.9", "description": "Compound (21) was evaluated for efficacy in a dog with naturally occurring non-Hodgkin's lymphoma (NHL). Canine NHL has proven to be a relevant model for preclinical evaluation of new therapeutics, both for initial induction and rescue of drug-resistant relapse (Reference Vail D M, Thamm D H. Spontaneously occurring tumors in companion animals as models for drug development. In: Teisher B A, ed. Anticancer Drug Development Guide. 2nd ed. Totowa (NJ): Humana Press Inc; 2004; 259-286.) Evaluation of novel therapeutic approaches in dogs with spontaneous cancer offers potential benefit to canine patients and a rapid assessment of therapeutic index. Because the tumors arise spontaneously in an immunologically intact host and have greater heterogeneity than passaged cell lines, it is not surprising that responses to standard chemotherapeutic agents in canine malignancies are similar to those of the corresponding tumors in man and that the preclinical results attained may be more predictive of the activity in humans (references; Khanna C, Paoloni M. Translation of new cancer treatments from pet dogs to humans. Nature Rev Cancer. 2008; 8:7-16.; Vail D M, Young K M. Canine lymphoma and lymphoid leukemia. In: Withrow S J, Vail D M, eds. Small Animal Clinical Oncology. 4th Ed. St. Louis (MO): Saunders; 2007. p. 699-733.) Non-Hodgkin's lymphoma in dogs represents a relatively homogenous population with respect to histological type as defined by the REAL/WHO or NCI-Working Formulation schema (i.e., 85% are medium- to high-grade B-cell NHL) with the majority being diffuse large B-cell lymphoma (reference Jacobs R M, Messick J B, Valli V E. Tumors of the hemolymphatic system. In: Meuten D J, editor. Tumors in Domestic Animals. 4th Ed. Ames (IA): Iowa State Press; 2002:119-198).\nCompound (21) was administered at a dose of 0.3 mg/kg of body weight by 30 minute IV infusion in Sterile Saline Injection (0.9% sodium chloride for injection) (total volume 2 ml/kg or 100 ml) once every 21 days to a dog that had non-Hodgkin's lymphoma involving multiple lymphnodes. Diagnosis was confirmed by histological evaluation of the tumor. The effect of treatment on the tumor was measured using the Response Evaluation Criteria in Solid Tumors (RECIST) Guideline (Therasse et al 2000). The size of the tumors and response to treatment was evaluated by in these peripherally accessible lymph nodes, by measuring the longest dimension using callipers and evaluating changes in the individual tumor measurement and their sums. […] Confirmation was done by cytological examination of an aspirated biopsy to confirm the absence of tumor cells.", "key": {"[1]": {"settings": "Day 7 (printed under the Day 1 column)"}, "[2]": {"settings": "Day 14 (printed under the Day 7 column)"}, "[3]": {"settings": "Day 21 (printed under the Day 14 column)"}, "[4]": {"settings": "Day 28 (printed under the Day 21 column)"}, "[5]": {"settings": "Day 42 (printed under the Day 28 column)"}}}
{"smiles": "CCCOc1nc(N)nc2c1ncn2CCOCP(=O)(N1CCC[C@H]1C(=O)OCC)N1CCC[C@H]1C(=O)OCC", "note": "[Example 21]", "values": [{"measurement": "% change of sum of lymphnodes", "setting": "Day 1 (printed under the Day 0 column)", "value": "−13.0", "unit": "%"}, {"measurement": "Lymphnode L PopLN longest dimension", "setting": "Day 1, 0.3 mg/kg IV once every 21 days, Day 0 pre treatment 2.3", "value": 2.1, "unit": "cm"}, {"measurement": "Lymphnode R SMLN longest dimension", "setting": "Day 1, 0.3 mg/kg IV once every 21 days, Day 0 pre treatment 2.9", "value": 3.1, "unit": "cm"}, {"measurement": "Lymphnode L SMLN longest dimension", "setting": "Day 1, 0.3 mg/kg IV once every 21 days, Day 0 pre treatment 3.1", "value": 2.0, "unit": "cm"}, {"measurement": "Lymphnode R PSLN longest dimension", "setting": "Day 1, 0.3 mg/kg IV once every 21 days, Day 0 pre treatment 3.6", "value": 3.6, "unit": "cm"}, {"measurement": "Lymphnode L PSLN longest dimension", "setting": "Day 1, 0.3 mg/kg IV once every 21 days, Day 0 pre treatment 5.0", "value": 3.9, "unit": "cm"}, {"measurement": "Sum of lymphnodes", "setting": "Day 1, 0.3 mg/kg IV once every 21 days", "value": 14.7, "unit": "cm"}, {"measurement": "Change of sum of lymphnodes", "setting": "Day 1 vs Day 0 pre treatment sum 16.9", "value": "−2.2", "unit": "cm"}, {"measurement": "Response (RECIST)", "setting": "[1]", "value": "PR (Partial Response (PR) if at least a 30% decrease in the sum of the LD of target lesions, taking as reference the baseline sum)"}, {"measurement": "% change of sum of lymphnodes", "setting": "[1]", "value": "−66.3", "unit": "%"}, {"measurement": "Lymphnode L PopLN longest dimension", "setting": "Day 7, 0.3 mg/kg IV once every 21 days, Day 0 pre treatment 2.3", "value": 1.6, "unit": "cm"}, {"measurement": "Lymphnode R SMLN longest dimension", "setting": "Day 7, 0.3 mg/kg IV once every 21 days, Day 0 pre treatment 2.9", "value": 1.0, "unit": "cm"}, {"measurement": "Lymphnode L SMLN longest dimension", "setting": "Day 7, 0.3 mg/kg IV once every 21 days, Day 0 pre treatment 3.1", "value": 1.1, "unit": "cm"}, {"measurement": "Lymphnode R PSLN longest dimension", "setting": "Day 7, 0.3 mg/kg IV once every 21 days, Day 0 pre treatment 3.6", "value": 1.0, "unit": "cm"}, {"measurement": "Lymphnode L PSLN longest dimension", "setting": "Day 7, 0.3 mg/kg IV once every 21 days, Day 0 pre treatment 5.0", "value": 1.0, "unit": "cm"}, {"measurement": "Sum of lymphnodes", "setting": "Day 7", "value": 5.7, "unit": "cm"}, {"measurement": "Change of sum of lymphnodes", "setting": "Day 7 vs Day 0 pre treatment sum 16.9", "value": "−11.2", "unit": "cm"}, {"measurement": "Response (RECIST)", "setting": "[2]", "value": "PR (Partial Response (PR) if at least a 30% decrease in the sum of the LD of target lesions, taking as reference the baseline sum)"}, {"measurement": "% change of sum of lymphnodes", "setting": "[2]", "value": "−69.2", "unit": "%"}, {"measurement": "Lymphnode L PopLN longest dimension", "setting": "Day 14, 0.3 mg/kg IV once every 21 days, Day 0 pre treatment 2.3", "value": 1.0, "unit": "cm"}, {"measurement": "Lymphnode R SMLN longest dimension", "setting": "Day 14, 0.3 mg/kg IV once every 21 days, Day 0 pre treatment 2.9", "value": 1.0, "unit": "cm"}, {"measurement": "Lymphnode L SMLN longest dimension", "setting": "Day 14, 0.3 mg/kg IV once every 21 days, Day 0 pre treatment 3.1", "value": 1.0, "unit": "cm"}, {"measurement": "Lymphnode R PSLN longest dimension", "setting": "Day 14, 0.3 mg/kg IV once every 21 days, Day 0 pre treatment 3.6", "value": 1.0, "unit": "cm"}, {"measurement": "Lymphnode L PSLN longest dimension", "setting": "Day 14, 0.3 mg/kg IV once every 21 days, Day 0 pre treatment 5.0", "value": 1.2, "unit": "cm"}, {"measurement": "Sum of lymphnodes", "setting": "Day 14", "value": 5.2, "unit": "cm"}, {"measurement": "Change of sum of lymphnodes", "setting": "Day 14 vs Day 0 pre treatment sum 16.9", "value": "−11.7", "unit": "cm"}, {"measurement": "Lymphnode L PopLN longest dimension", "setting": "Day 21 (Treatment #2), 0.3 mg/kg IV once every 21 days, Day 0 pre treatment 2.3", "value": 1.3, "unit": "cm"}, {"measurement": "Lymphnode R SMLN longest dimension", "setting": "Day 21 (Treatment #2), 0.3 mg/kg IV once every 21 days, Day 0 pre treatment 2.9", "value": 2.0, "unit": "cm"}, {"measurement": "Lymphnode L SMLN longest dimension", "setting": "Day 21 (Treatment #2), 0.3 mg/kg IV once every 21 days, Day 0 pre treatment 3.1", "value": 2.3, "unit": "cm"}, {"measurement": "Lymphnode R PSLN longest dimension", "setting": "Day 21 (Treatment #2), 0.3 mg/kg IV once every 21 days, Day 0 pre treatment 3.6", "value": 2.7, "unit": "cm"}, {"measurement": "Lymphnode L PSLN longest dimension", "setting": "Day 21 (Treatment #2), 0.3 mg/kg IV once every 21 days, Day 0 pre treatment 5.0", "value": 2.8, "unit": "cm"}, {"measurement": "Sum of lymphnodes", "setting": "Day 21 (Treatment #2)", "value": 11.1, "unit": "cm"}, {"measurement": "Response (RECIST)", "setting": "[3]", "value": "PR (Partial Response (PR) if at least a 30% decrease in the sum of the LD of target lesions, taking as reference the baseline sum)"}, {"measurement": "% change of sum of lymphnodes", "setting": "[3]", "value": "−34.3", "unit": "%"}, {"measurement": "Change of sum of lymphnodes", "setting": "Day 21 vs Day 0 pre treatment sum 16.9", "value": "−5.8", "unit": "cm"}, {"measurement": "Response (RECIST)", "setting": "[4]", "value": "PR (Partial Response (PR) if at least a 30% decrease in the sum of the LD of target lesions, taking as reference the baseline sum)"}, {"measurement": "% change of sum of lymphnodes", "setting": "[4]", "value": "−67.5", "unit": "%"}, {"measurement": "Lymphnode R SMLN longest dimension", "setting": "Day 28, 0.3 mg/kg IV once every 21 days, Day 0 pre treatment 2.9", "value": 1.0, "unit": "cm"}, {"measurement": "Lymphnode L SMLN longest dimension", "setting": "Day 28, 0.3 mg/kg IV once every 21 days, Day 0 pre treatment 3.1", "value": 1.5, "unit": "cm"}, {"measurement": "Lymphnode R PSLN longest dimension", "setting": "Day 28, 0.3 mg/kg IV once every 21 days, Day 0 pre treatment 3.6", "value": 1.5, "unit": "cm"}, {"measurement": "Lymphnode L PSLN longest dimension", "setting": "Day 28, 0.3 mg/kg IV once every 21 days, Day 0 pre treatment 5.0", "value": 1.5, "unit": "cm"}, {"measurement": "Sum of lymphnodes", "setting": "Day 28", "value": 5.5, "unit": "cm"}, {"measurement": "Change of sum of lymphnodes", "setting": "Day 28 vs Day 0 pre treatment sum 16.9", "value": "−11.4", "unit": "cm"}, {"measurement": "Lymphnode L PopLN size", "setting": "Day 42 (Treatment #3), 0.3 mg/kg IV once every 21 days, Day 0 pre treatment 2.3", "value": "WNL"}, {"measurement": "Lymphnode R SMLN size", "setting": "Day 42 (Treatment #3), 0.3 mg/kg IV once every 21 days, Day 0 pre treatment 2.9", "value": "WNL"}, {"measurement": "Lymphnode L SMLN size", "setting": "Day 42 (Treatment #3), 0.3 mg/kg IV once every 21 days, Day 0 pre treatment 3.1", "value": "WNL**"}, {"measurement": "Lymphnode R PSLN size", "setting": "Day 42 (Treatment #3), 0.3 mg/kg IV once every 21 days, Day 0 pre treatment 3.6", "value": "WNL"}, {"measurement": "Lymphnode L PSLN size", "setting": "Day 42 (Treatment #3), 0.3 mg/kg IV once every 21 days, Day 0 pre treatment 5.0", "value": "WNL"}, {"measurement": "Response (RECIST)", "setting": "[5]", "value": "CR (Complete Response (CR) if lymphnodes returned to a size within normal limits)"}, {"measurement": "% change of sum of lymphnodes", "setting": "[5]", "value": "−100", "unit": "%"}, {"measurement": "Response to treatment", "setting": "after one treatment, 0.3 mg/kg IV", "value": "Partial Response"}, {"measurement": "reduction in tumor size", "setting": "starting on Day 7 after the first treatment, continued improvement to day 42", "value": "significant reduction in tumor size"}, {"measurement": "Response to treatment", "setting": "with continued treatment, 0.3 mg/kg IV once every 21 days", "value": "Complete Response with complete elimination of the tumor"}]}
